# In ChEMBL document CHEMBL3045835, “Comparative study of conventional and microwave-assisted synthesis of some Schiff bases and their potential as antimicrobial agents” (2012):
# Assays:
# Assay type in all cases: functional
# Staphylococcus aureus [1] = assay: Antibacterial activity against Staphylococcus aureus MTCC 1430 at 100 ug/ml after 18 hr by cup-plate method; details: MTCC 1430, 18 h, read-out: DIZ
# Penicillium chrysogenum [2] = assay: Antifungal activity against Penicillium chrysogenum MTCC 161 at 200 ug/ml after 18 hr by cup-plate method; details: MTCC 161, 18 h, read-out: DIZ
# Bacillus subtilis [3] = assay: Antibacterial activity against Bacillus subtilis MTCC 441 at 200 ug/ml after 18 hr by cup plate method; details: MTCC 441, 18 h, read-out: DIZ
# Staphylococcus aureus [4] = assay: Antibacterial activity against Staphylococcus aureus MTCC 1430 at 1500 ug/ml after 18 hr by cup-plate method; details: MTCC 1430, 18 h, read-out: DIZ
# Aspergillus niger [5] = assay: Antifungal activity against Aspergillus niger MTCC 2546 at 1500 ug/ml after 18 hr by cup-plate method; details: MTCC 2546, 18 h, read-out: DIZ
# Pseudomonas fluorescens [6] = assay: Antibacterial activity against Pseudomonas fluorescens MTCC 2421 after 24 hr by broth dilution method; details: MTCC 2421, 24 h
# Penicillium chrysogenum [7] = assay: Antifungal activity against Penicillium chrysogenum MTCC 161 at 500 ug/ml after 18 hr by cup-plate method; details: MTCC 161, 18 h, read-out: DIZ
# Aspergillus niger [8] = assay: Antifungal activity against Aspergillus niger MTCC 2546 after 24 hr by broth dilution method; details: MTCC 2546, 24 h
# Penicillium chrysogenum [9] = assay: Antifungal activity against Penicillium chrysogenum MTCC 161 at 1500 ug/ml after 18 hr by cup-plate method; details: MTCC 161, 18 h, read-out: DIZ
# Bacillus pumilus [10] = assay: Antibacterial activity against Bacillus pumilus MTCC 1456 at 200 ug/ml after 18 hr by cup-plate method; details: MTCC 1456, 18 h, read-out: DIZ
# Bacillus pumilus [11] = assay: Antibacterial activity against Bacillus pumilus MTCC 1456 at 100 ug/ml after 18 hr by cup-plate method; details: MTCC 1456, 18 h, read-out: DIZ
# Escherichia coli [12] = assay: Antibacterial activity against Escherichia coli MTCC 1573 after 24 hr by broth dilution method; details: MTCC 1573, 24 h
# Penicillium chrysogenum [13] = assay: Antifungal activity against Penicillium chrysogenum MTCC 161 at 1000 ug/ml after 18 hr by cup-plate method; details: MTCC 161, 18 h, read-out: DIZ
# Bacillus pumilus [14] = assay: Antibacterial activity against Bacillus pumilus MTCC 1456 after 24 hr by broth dilution method; details: MTCC 1456, 24 h
# Aspergillus niger [15] = assay: Antifungal activity against Aspergillus niger MTCC 2546 at 100 ug/ml after 18 hr by cup-plate method; details: MTCC 2546, 18 h, read-out: DIZ
# Escherichia coli [16] = assay: Antibacterial activity against Escherichia coli MTCC 1573 at 500 ug/ml after 18 hr by cup-plate method; details: MTCC 1573, 18 h, read-out: DIZ
# Bacillus subtilis [17] = assay: Antibacterial activity against Bacillus subtilis MTCC 441 at 500 ug/ml after 18 hr by cup plate method; details: MTCC 441, 18 h, read-out: DIZ
# Bacillus subtilis [18] = assay: Antibacterial activity against Bacillus subtilis MTCC 441 after 24 hr by broth dilution method; details: MTCC 441, 24 h
# Pseudomonas aeruginosa [19] = assay: Antibacterial activity against Pseudomonas aeruginosa MTCC 424 after 24 hr by broth dilution method; details: MTCC 424, 24 h
# Aspergillus niger [20] = assay: Antifungal activity against Aspergillus niger MTCC 2546 at 1000 ug/ml after 18 hr by cup-plate method; details: MTCC 2546, 18 h, read-out: DIZ
# Pseudomonas fluorescens [21] = assay: Antibacterial activity against Pseudomonas fluorescens MTCC 2421 at 1000 ug/ml after 18 hr by cup-plate method; details: MTCC 2421, 18 h, read-out: DIZ
# Penicillium chrysogenum [22] = assay: Antifungal activity against Penicillium chrysogenum MTCC 161 after 24 hr by broth dilution method; details: MTCC 161, 24 h
# Micrococcus luteus [23] = assay: Antibacterial activity against Micrococcus luteus MTCC 1538 at 1500 ug/ml after 18 hr by cup-plate method; details: MTCC 1538, 18 h, read-out: DIZ
# Bacillus subtilis [24] = assay: Antibacterial activity against Bacillus subtilis MTCC 441 at 1500 ug/ml after 18 hr by cup plate method; details: MTCC 441, 18 h, read-out: DIZ
# Bacillus pumilus [25] = assay: Antibacterial activity against Bacillus pumilus MTCC 1456 at 1000 ug/ml after 18 hr by cup-plate method; details: MTCC 1456, 18 h, read-out: DIZ
# Bacillus pumilus [26] = assay: Antibacterial activity against Bacillus pumilus MTCC 1456 at 1500 ug/ml after 18 hr by cup-plate method; details: MTCC 1456, 18 h, read-out: DIZ
# Pseudomonas aeruginosa [27] = assay: Antibacterial activity against Pseudomonas aeruginosa MTCC 424 at 1500 ug/ml after 18 hr by cup-plate method; details: MTCC 424, 18 h, read-out: DIZ
# Micrococcus luteus [28] = assay: Antibacterial activity against Micrococcus luteus MTCC 1538 after 24 hr by broth dilution method; details: MTCC 1538, 24 h
# Bacillus subtilis [29] = assay: Antibacterial activity against Bacillus subtilis MTCC 441 at 1000 ug/ml after 18 hr by cup plate method; details: MTCC 441, 18 h, read-out: DIZ
# Micrococcus luteus [30] = assay: Antibacterial activity against Micrococcus luteus MTCC 1538 at 200 ug/ml after 18 hr by cup-plate method; details: MTCC 1538, 18 h, read-out: DIZ
# Pseudomonas fluorescens [31] = assay: Antibacterial activity against Pseudomonas fluorescens MTCC 2421 at 1500 ug/ml after 18 hr by cup-plate method; details: MTCC 2421, 18 h, read-out: DIZ
# Pseudomonas fluorescens [32] = assay: Antibacterial activity against Pseudomonas fluorescens MTCC 2421 at 500 ug/ml after 18 hr by cup-plate method; details: MTCC 2421, 18 h, read-out: DIZ
# Pseudomonas fluorescens [33] = assay: Antibacterial activity against Pseudomonas fluorescens MTCC 2421 at 200 ug/ml after 18 hr by cup-plate method; details: MTCC 2421, 18 h, read-out: DIZ
# Pseudomonas aeruginosa [34] = assay: Antibacterial activity against Pseudomonas aeruginosa MTCC 424 at 1000 ug/ml after 18 hr by cup-plate method; details: MTCC 424, 18 h, read-out: DIZ
# Penicillium chrysogenum [35] = assay: Antifungal activity against Penicillium chrysogenum MTCC 161 at 100 ug/ml after 18 hr by cup-plate method; details: MTCC 161, 18 h, read-out: DIZ
# Escherichia coli [36] = assay: Antibacterial activity against Escherichia coli MTCC 1573 at 200 ug/ml after 18 hr by cup-plate method; details: MTCC 1573, 18 h, read-out: DIZ
# Escherichia coli [37] = assay: Antibacterial activity against Escherichia coli MTCC 1573 at 1500 ug/ml after 18 hr by cup-plate method; details: MTCC 1573, 18 h, read-out: DIZ
# Micrococcus luteus [38] = assay: Antibacterial activity against Micrococcus luteus MTCC 1538 at 1000 ug/ml after 18 hr by cup-plate method; details: MTCC 1538, 18 h, read-out: DIZ
# Pseudomonas aeruginosa [39] = assay: Antibacterial activity against Pseudomonas aeruginosa MTCC 424 at 200 ug/ml after 18 hr by cup-plate method; details: MTCC 424, 18 h, read-out: DIZ
# Escherichia coli [40] = assay: Antibacterial activity against Escherichia coli MTCC 1573 at 1000 ug/ml after 18 hr by cup-plate method; details: MTCC 1573, 18 h, read-out: DIZ
# Staphylococcus aureus [41] = assay: Antibacterial activity against Staphylococcus aureus MTCC 1430 at 500 ug/ml after 18 hr by cup-plate method; details: MTCC 1430, 18 h, read-out: DIZ
# Pseudomonas fluorescens [42] = assay: Antibacterial activity against Pseudomonas fluorescens MTCC 2421 at 100 ug/ml after 18 hr by cup-plate method; details: MTCC 2421, 18 h, read-out: DIZ
# Aspergillus niger [43] = assay: Antifungal activity against Aspergillus niger MTCC 2546 at 500 ug/ml after 18 hr by cup-plate method; details: MTCC 2546, 18 h, read-out: DIZ
# Aspergillus niger [44] = assay: Antifungal activity against Aspergillus niger MTCC 2546 at 200 ug/ml after 18 hr by cup-plate method; details: MTCC 2546, 18 h, read-out: DIZ
# Bacillus subtilis [45] = assay: Antibacterial activity against Bacillus subtilis MTCC 441 at 100 ug/ml after 18 hr by cup plate method; details: MTCC 441, 18 h, read-out: DIZ
# Pseudomonas aeruginosa [46] = assay: Antibacterial activity against Pseudomonas aeruginosa MTCC 424 at 100 ug/ml after 18 hr by cup-plate method; details: MTCC 424, 18 h, read-out: DIZ
# Bacillus pumilus [47] = assay: Antibacterial activity against Bacillus pumilus MTCC 1456 at 500 ug/ml after 18 hr by cup-plate method; details: MTCC 1456, 18 h, read-out: DIZ
# Micrococcus luteus [48] = assay: Antibacterial activity against Micrococcus luteus MTCC 1538 at 500 ug/ml after 18 hr by cup-plate method; details: MTCC 1538, 18 h, read-out: DIZ
# Pseudomonas aeruginosa [49] = assay: Antibacterial activity against Pseudomonas aeruginosa MTCC 424 at 500 ug/ml after 18 hr by cup-plate method; details: MTCC 424, 18 h, read-out: DIZ
# Escherichia coli [50] = assay: Antibacterial activity against Escherichia coli MTCC 1573 at 100 ug/ml after 18 hr by cup-plate method; details: MTCC 1573, 18 h, read-out: DIZ
# Staphylococcus aureus [51] = assay: Antibacterial activity against Staphylococcus aureus MTCC 1430 after 24 hr by broth dilution method; details: MTCC 1430, 24 h
# Staphylococcus aureus [52] = assay: Antibacterial activity against Staphylococcus aureus MTCC 1430 at 200 ug/ml after 18 hr by cup-plate method; details: MTCC 1430, 18 h, read-out: DIZ
# Micrococcus luteus [53] = assay: Antibacterial activity against Micrococcus luteus MTCC 1538 at 100 ug/ml after 18 hr by cup-plate method; details: MTCC 1538, 18 h, read-out: DIZ
# Staphylococcus aureus [54] = assay: Antibacterial activity against Staphylococcus aureus MTCC 1430 at 1000 ug/ml after 18 hr by cup-plate method; details: MTCC 1430, 18 h, read-out: DIZ
smiles,measurement,setting,value
Cc1cc(/N=C/c2cccc3ccccc23)no1,zone of inhibition at 100 µg/mL,Staphylococcus aureus [1],13 mm
same,zone of inhibition at 200 µg/mL,Penicillium chrysogenum [2],16 mm
same,zone of inhibition at 200 µg/mL,Bacillus subtilis [3],16 mm
same,zone of inhibition at 1500 µg/mL,Staphylococcus aureus [4],20 mm
same,zone of inhibition at 1500 µg/mL,Aspergillus niger [5],21 mm
same,MIC,Pseudomonas fluorescens [6],300 µg/mL
same,zone of inhibition at 500 µg/mL,Penicillium chrysogenum [7],18 mm
same,MIC,Aspergillus niger [8],300 µg/mL
same,zone of inhibition at 1500 µg/mL,Penicillium chrysogenum [9],20 mm
same,zone of inhibition at 200 µg/mL,Bacillus pumilus [10],15 mm
same,zone of inhibition at 100 µg/mL,Bacillus pumilus [11],13 mm
same,MIC,Escherichia coli [12],300 µg/mL
same,zone of inhibition at 1000 µg/mL,Penicillium chrysogenum [13],19 mm
same,MIC,Bacillus pumilus [14],300 µg/mL
same,zone of inhibition at 100 µg/mL,Aspergillus niger [15],13 mm
same,zone of inhibition at 500 µg/mL,Escherichia coli [16],14 mm
same,zone of inhibition at 500 µg/mL,Bacillus subtilis [17],17 mm
same,MIC,Bacillus subtilis [18],300 µg/mL
same,MIC,Pseudomonas aeruginosa [19],300 µg/mL
same,zone of inhibition at 1000 µg/mL,Aspergillus niger [20],20 mm
same,zone of inhibition at 1000 µg/mL,Pseudomonas fluorescens [21],18 mm
same,MIC,Penicillium chrysogenum [22],200 µg/mL
same,zone of inhibition at 1500 µg/mL,Micrococcus luteus [23],24 mm
same,zone of inhibition at 1500 µg/mL,Bacillus subtilis [24],20 mm
same,zone of inhibition at 1000 µg/mL,Bacillus pumilus [25],17 mm
same,zone of inhibition at 1500 µg/mL,Bacillus pumilus [26],18 mm
same,zone of inhibition at 1500 µg/mL,Pseudomonas aeruginosa [27],20 mm
same,MIC,Micrococcus luteus [28],200 µg/mL
same,zone of inhibition at 1000 µg/mL,Bacillus subtilis [29],19 mm
same,zone of inhibition at 200 µg/mL,Micrococcus luteus [30],18 mm
same,zone of inhibition at 1500 µg/mL,Pseudomonas fluorescens [31],19 mm
same,zone of inhibition at 500 µg/mL,Pseudomonas fluorescens [32],15 mm
same,zone of inhibition at 200 µg/mL,Pseudomonas fluorescens [33],13 mm
same,zone of inhibition at 1000 µg/mL,Pseudomonas aeruginosa [34],18 mm
same,zone of inhibition at 100 µg/mL,Penicillium chrysogenum [35],15 mm
same,zone of inhibition at 200 µg/mL,Escherichia coli [36],13 mm
same,zone of inhibition at 1500 µg/mL,Escherichia coli [37],17 mm
same,zone of inhibition at 1000 µg/mL,Micrococcus luteus [38],22 mm
same,zone of inhibition at 200 µg/mL,Pseudomonas aeruginosa [39],16 mm
same,zone of inhibition at 1000 µg/mL,Escherichia coli [40],15 mm
same,zone of inhibition at 500 µg/mL,Staphylococcus aureus [41],15 mm
same,zone of inhibition at 100 µg/mL,Pseudomonas fluorescens [42],11 mm
same,zone of inhibition at 500 µg/mL,Aspergillus niger [43],19 mm
same,zone of inhibition at 200 µg/mL,Aspergillus niger [44],18 mm
same,zone of inhibition at 100 µg/mL,Bacillus subtilis [45],13 mm
same,zone of inhibition at 100 µg/mL,Pseudomonas aeruginosa [46],14 mm
same,zone of inhibition at 500 µg/mL,Bacillus pumilus [47],16 mm
same,zone of inhibition at 500 µg/mL,Micrococcus luteus [48],20 mm
same,zone of inhibition at 500 µg/mL,Pseudomonas aeruginosa [49],17 mm
same,zone of inhibition at 100 µg/mL,Escherichia coli [50],12 mm
same,MIC,Staphylococcus aureus [51],400 µg/mL
same,zone of inhibition at 200 µg/mL,Staphylococcus aureus [52],14 mm
same,zone of inhibition at 100 µg/mL,Micrococcus luteus [53],16 mm
same,zone of inhibition at 1000 µg/mL,Staphylococcus aureus [54],16 mm
